Experiments:
[1] = system: phenylquinone induced writhing; assay: Screening test for analgetic activity: mouse analgetic (anti-writhing) assay (method of Hendershot & Forsaith); assay type: in vivo; settings: activity relative to aspirin = 1; oral by gavage, male Swiss-Webster mice, phenylquinone IP twenty minutes later
Protocol: Small animal screening tests to determine analgetic activity potential include the mouse analgetic (anti-writhing) assay according to the method of Hendershot and Forsaith, J. Pharmacol. Exp. Ther., 125:237-240, (1959).
The oral analgetic activity potential is determined utilizing the mouse analgetic (anti-writhing) assay in accordance with the method of Hendershot & Forsaith, J.Pharmacol.Exp.Ther., 125:237-240, (1959).
The test material is administered orally by gavage in an aqueous vehicle at time 0 to 18-20 gram male Swiss-Webster mice. Twenty minutes later 0.5 ml of a 0.02% solution of phenylquinone is injected IP. This solution induces writhing.
The total number of mice that writhe and the average number of writhes per mouse indicates the activity of the compound tested; the fewer writhes per mouse indicates a greater activity. Compounds of this invention show analgetic activity in this assay as illustrated in Table 2 below.

[2] = system: carrageenin induced paw inflammation; assay: Screening test for anti-inflammatory activity: carrageenin induced paw inflammation in the rat (method of Winter et al.); assay type: in vivo; settings: activity relative to phenylbutazone = 1; oral by gavage at hour 0, female rats, carrageenin at hour 1, paws weighed at hour 4
Protocol: Initial small animal screening tests to determine anti-inflammatory activity potential include the carrageenin induced paw inflammation in the rat according to the method of Winter, et al., Proc. Soc. Exp. Biol. Med., 111:544-547, (1962) and the cotton pellet granuloma test in the rat according to the method of Meier, et al Experientia 6:469-471, (1950) and modifications thereof. The oral anti-inflammatory activity is determined utilizing carrageenin induced paw inflammation in the rat in accordance with the method of Winter, et al., Pro.Soc.Exp.Biol.Med., III:544-547, (1962). Female rats weighing 80-90 grams are used. The test materials are given at hour 0 orally by gavage in 1 ml of aqueous vehicle. At hour 1, 0.05 ml of a 1% solution (in 0.9% NaCl) of carrageenin is injected into the right hind paw. This injection causes inflammation of the paw. The rats are sacrificed at hour 4, at which time both hind paws are removed and weighed separately. The percent increase in paw size is calculated as follows: • Wt. of right paw - Wt of left ^paw X 100 […] The smaller the percent increase in paw size, the lesser the degree of inflammation and the greater the anti-inflammatory activity. Compounds of this invention show anti-inflammatory activity in this test as illustrated in Table 1 below.

Row | SMILES | Analgesic Activity (Aspirin = 1) [1] | (Phenylbutazone = 1) Antiinflammatory Activity [2]
1 | CSc1ccc(C(=O)c2cc(C(C)C(=O)O)cc3ccoc23)cc1 (racemic) [d,l 2-(7-(4-methylthiobenzoyl)benzofuran-5-yl)-propionic acid] | 25 | 15
2 | CSc1ccc(C(=O)c2cc(CC(=O)O)cc3ccoc23)cc1 [7-(4-methylthiobenzoyl)benzofuran-5-ylacetic acid] | 95 | 1.5
3 | O=C(O)Cc1cc(C(=O)c2ccc(Cl)cc2)c2sccc2c1 [7-(4-chlorobenzoyl)benzothiophen-5-ylacetic acid] | 7 | 1.5
4 | O=C(O)Cc1cc(C(=O)c2ccc(Cl)cc2)c2occc2c1 [7-(4-chlorobenzoyl)benzofuran-5-ylacetic acid] | 32 | 0.5
5 | CC(C(=O)O)c1cc(C(=O)c2ccccc2)c2occc2c1 (racemic) [d,l 2-(7-benzoylbenzofuran-5-yl)propionic acid] | 50 | 2
6 | CC(C(=O)O)c1cc(C(=O)c2ccc(Cl)cc2)c2occc2c1 (racemic) [d.1-2-(7-(4-chlorobenzoyl)benzofuran-5-yl)-propionic acid] | 35 | 4
7 | O=C(O)Cc1cc(C(=O)c2ccccc2)c2occc2c1 [Ar=phenyl, R1=H, X1=O, X2=O, R2=H, R3=H, 7-benzoylbenzofuran-5-ylacetic acid] | 25 | 1

Reference: patent EP0132130A2, “Aroyl benzofuran and benzothiophene acetic and propionic acids processes for their production and pharmaceutical compositions containing them” (SYNTEX (U.S.A.) INC., priority 1983, dated 1985)
